Consider two compounds from US20170290783A1, “Rabbit Maternal Pheromones to Enhance the Weight of Weaning Piglets” (Animal Biotech, LLC, priority 2016, published 2017).

Test [1] has as its system re-grouped, stressed pigs. Particulars: cited from earlier work.
The subject of another test is weaning piglets. The test can be described thus: Post-weaning piglet performance (body weight, ADG, ADFI, G:F) after a single application of rabbit maternal pheromone to the nursery feeder. The format is in vivo, pig. The source says:
Piglets (n=120) were randomly selected from nursing sows. A total of 120 piglets, 60 males and 60 females, were weaned at approximately 3 weeks of age and transported for four hours before entering the nursery site. Piglets were housed in groups of three, single-sex (either barrows or gilts), and had ad libitum access to feed and water. A total of 40 pens (the experimental unit) were available; 10 each of male and female experiencing control or pheromone therapy. Space allowance was in excess of industry standards (0.6 m^2 per piglet). Body weight and feed intake were each measured once per week from commencement of weaning until 35 days after weaning.
Control and pheromone-treated piglets were housed in separate rooms, with no airflow between the rooms to ensure no cross contamination between air spaces. To expose piglets to the rabbit maternal pheromone, test piglet feeders received 25 mL of the trans-2-methyl-2-butenal solution (1 μg/mL in isopropyl alcohol) while the control piglet feeders received 25 mL of isopropyl alcohol only. Feeders were sprayed immediately before the arrival of piglets to the nursery site.
Half of the pigs and pens in each group were transported and half were moved directly from the farrowing crates to the adjacent nursery building. The experimental design was a completely random design with a two by two factorial arrangement of transport (or not) and trans-2-methyl-2-butenal or placebo control.
Average daily gain (ADG, kg. per day) was calculated from the body weights both weekly and over the entire period. Average daily feed intake (ADFI, kg. per pig per day) was calculated based on weekly feed consumption. Gain to Feed (G:F) was calculated each week and over the 28-day post-weaning period.
Data were analyzed using SAS software (SAS, 2012). PROC Univariate was used to establish that the overall ADG, ADFI and G:F ratio data were normally distributed. The general linear models procedure was used with pen as the experimental unit. There were 40 experimental units (pens) in total. The original model contained the factorial effects of (A) trans-2-methyl-2-butenal applied during transport or not, (B) trans-2-methyl-2-butenal applied to the nursery feeder or not, and (3) pig sex (barrow vs. gilt) and all possible interactions. […] A final simplified analysis was performed with only the effects of trans-2-methyl-2-butenal applied in the nursery or not with 20 pens per treatment.

Turning to `C[C@]12CCC(=O)C[C@@H]1CC[C@@H]1[C@@H]2CC[C@]2(C)C=CC[C@@H]12` [Androstenone], in test [1] (pig, in vivo), the Pig aggressive behaviors entry is reported as “reduced”. In test [1] (re-grouped, stressed pigs), the Weight gain entry was “temporarily improve”.

For the compound `C/C=C(\C)C=O` [trans-2-methyl-2-butenal], the “Piglet body weight vs control” value was “tended (P=0.06) to be heavier” in the test with weaning piglets (14 days after weaning); “statistically similar” in the test on weaning piglets (at weaning and 7 days later, 25 mL of 1 μg/mL in isopropyl alcohol sprayed on feeder); “significantly heavier” in the test on weaning piglets (days 21, 28 and 35 after weaning, P<0.05). Further, the “G:F (gain to feed)” value in the test on weaning piglets (P>0.10 vs control) is “not influenced”. For the same compound, in the test with weaning piglets (at weaning, pigs to experience treatment, control 6.5±0.06 kg, P>0.10), the “Body weight at weaning” value stood at 6.6 ± 0.025 kg. In addition, the “Overall ADG (average daily gain)” value in the test on weaning piglets (both the 4 and 5 week period after weaning, P<0.05 vs control) was “increase”. In the test with weaning piglets (during 4 weeks after weaning, P<0.05 vs control), the “ADFI (average daily feed intake)” value is “increase”. Besides, the figures for the “Stimulatory effect on feed intake” value in the test on weaning piglets (first week after weaning) and with weaning piglets (weeks two to five after weaning) were “very small (and not significant)” and “increases in magnitude”, respectively. Further, the “Improvement in body weight vs control” value with weaning piglets (five weeks after weaning, P=0.01) is listed as 8.5%. Besides, in the test on weaning piglets (five weeks after weaning, control 16.5±0.31 kg, P=0.01), the “Body weight five weeks after weaning” value came to 17.9 ± 0.31 kg. For the same compound, the “ADFI and ADG” value in the test on weaning piglets (single application to the feeder in the post-weaning environment) was “stimulate”. Besides, the “Overall performance measures, effect of application during transport” value in the test on weaning piglets (transport application, P>0.10) is listed as “not significant”. Moreover, in the test on weaning piglets (weeks 3, 5 and overall, P<0.05), the “Post-weaning ADG” value is reported as “increased”. Moreover, in the test with weaning piglets (weeks 3 and 4 after weaning and overall 5-week growth period, P<0.05), the ADFI entry is reported as “higher”.
